# From a melting point compilation (Tetko et al.; mined from patent text by program, amines drawn as free bases though some values may be those of a salt)
row,SMILES,melting point
1,O=C(O)Cc1ccc(Oc2ccc([N+](=O)[O-])cc2)cc1,132 to 136 °C
2,CCCC(O)(CC)C(C)=NO (centres undefined),59 °C
3,CCCCCCCCCCCCCCCCCCOc1cc2ccccc2c(N)c1O,97 to 99 °C
4,CCOc1nn(-c2ccc(C(F)(F)F)cc2)cc1CCCOc1ccccc1CC(=O)O,114 to 115 °C
5,Cc1nc(C)n(-c2cc([C@@H]3C[C@H]3c3nc4ccccc4n3C)nc(C(F)(F)F)n2)n1 (relative stereo),151 to 153 °C
6,O=C(O)C(Cl)(Cl)CCCCCCCCCCOc1ccc(Cl)cc1,63 to 64 °C
7,COc1nc(C(F)(F)F)cc(=O)n1-c1cc(OC(C)=O)c(Cl)cc1F,110 to 112 °C
8,Oc1cc(/C=C/c2ccccn2)n(-c2ccccc2)n1,167 to 168 °C
9,CCCc1c(CSc2nccc(OCC(=O)O)n2)ccc(C(C)=O)c1O,174 to 178 °C
10,c1cc2cc[nH]c2cn1,132 to 134 °C
11,CCCc1ccnc2c(=O)[nH]c(-c3cc(S(=O)(=O)N4CCN(CCO)CC4)ccc3OCC)nc12,187 to 188 °C
12,CCOc1cc2c(O)c(Br)cnc2nc1C,266 to 267 °C
13,CCCCc1c(Cl)nc(N)nc1Cl,169 to 170 °C
14,CCCC(=O)c1cnn(C)c1S(=O)(=O)NC(=O)Nc1nc(C)nc(OC)n1,174 to 176 °C
15,O=C(O)/C=C1/c2ccccc2N(C(=O)c2ccc(NC(=O)c3ccccc3-c3ccccc3)cc2)CCC1(F)F,224 to 226 °C
16,COc1ccc(C)cc1C(=O)NCCc1ccc(CC(=O)O)cc1,148 to 150 °C
17,Cc1ccc(SN(C)C(=O)Oc2cccc3c2OC(C)(C)C3)cc1,62 °C
18,CCCCOCCCOCCCCCCNCC(O)c1cc(Cl)c(N)c(Cl)c1 (centres undefined),49 to 51 °C
19,CC(C)c1cccc(C(C)C)c1NC(=O)NCC1(Nc2ccc(I)cc2)CCCC1,176 °C
20,CCCCCCCCCCCCCCCCCCS(=O)(=O)c1cc2ccccc2c(N=Nc2ccc(OC)cc2)c1O,117 to 119 °C
21,O=Cc1ccc(-c2ccc3ncnc(Nc4ccc(OCc5cccc(F)c5)c(Cl)c4)c3c2)o1,230 to 234 °C

row,SMILES,melting point
1,Cc1cccc(N2CCN(CCc3ccc(-c4cccc(N)n4)cc3)CC2)c1,158 to 160 °C
2,CCCC(=O)OCC(=O)C1(OC(=O)COC)CCC2C3CC(C)C4=CC(=O)C=CC4(C)C3C(O)CC21C (centres undefined),132 to 134 °C
3,CN(C)Cc1cccc(-c2cc(-c3ccccc3O)nc(NC(=O)c3cccs3)c2C#N)c1,225 to 226 °C
4,Cc1cc(/C=[N+](\[O-])C(C)C)cc(C)c1O,201 to 203 °C
5,COc1ccc(-c2cn(-c3cc4c(=O)n(NS(C)(=O)=O)c(=O)[nH]c4cc3C(F)(F)F)cn2)cc1,293 to 294 °C
6,Cc1cn(-c2ccc(NC(=O)c3ccc(C)c(C#Cc4ccc(NC(C)C)nn4)c3)cc2C(F)(F)F)cn1,141 to 143 °C
7,COc1ccc(-c2c[nH]c(S)n2)cc1,204 °C
8,N#Cc1c(N)oc2c1CCCC2,179 °C
9,CCOC(=O)C(=CNc1csnn1)C(=O)c1cc(F)c(Cl)nc1Cl,110 to 114 °C
10,CCCCSc1nc(N)nc2c1ncn2C1C=CC(CO)C1 (centres undefined),120 to 123 °C
11,CC(C)Sc1cn(C)cc(-c2cccc(C(F)(F)F)c2)c1=O,93 to 94 °C
12,Cc1nc(N)c([N+](=O)[O-])cc1Cl,214 to 215 °C
13,CCOC(=O)C1=C(C)Nc2nc(N)nc(N)c2C1c1cc(OC)c(OC)c(OC)c1 (centres undefined),126 °C
14,CCCCCn1cc(C(=O)O)c(=O)c(I)c1C,154 °C
15,O=C(O)c1ccc(-c2ccc3nnn(Cc4ccc5ncccc5c4)c3n2)cc1,245 to 247 °C
16,CC(C)(C=O)C(O)(COc1cccc2ccccc12)Cn1ccnc1 (centres undefined),147 °C
17,N#Cc1c2c(n(Cc3ccccc3)c1N)CCCC2,128 to 130 °C
18,CC(C)OCc1cnc2c([N+](=O)[O-])cccc2c1Cl,83 to 86 °C
19,CC(=O)NCC#CCn1ccnc1,93 to 95 °C
20,COCOc1ccc(-n2c(SCc3ccc(Br)cc3)nc3ccc(Cl)cc32)cc1,123 to 124 °C
21,CC(=O)N(C)C(=O)Oc1cccc2c1OC(C)(C)O2,76 to 77 °C

row,SMILES,melting point
1,O=S1(=O)NCN(C2CC2)c2cc(Br)cc(F)c21,195 to 198 °C
2,COc1cc2cnc(C(=O)O)cc2cc1OC,228 °C
3,CCP(=O)(O)CC(=O)CN,189 to 192 °C
4,Oc1nc(-c2ccc(Cl)cc2)nc2c1CCCC2,255 °C
5,CN(C)C1(c2ccccc2)CCC(=CC(=O)NCCc2ccccc2)CC1 (centres undefined),153 to 155 °C
6,CC(C)(C)OC(=O)Nc1ccc(-c2cccc(F)c2)cc1NC(=O)CC(=O)c1cccc(-n2ccnc2)c1,70 to 83 °C
7,COc1ccc(NC(=O)c2ccc(Br)o2)cc1N1CCN(C)CC1,125 to 127 °C
8,O=[N+]([O-])CCN1CCC(n2ccc(-c3ccc(F)cc3)c2-c2ccncc2)CC1,172 to 173 °C
9,CN(C)C(=N)c1c(Cl)cc(N=Cc2ccc(N(C)C)cc2F)cc1Cl,127 to 128 °C
10,COc1ccc(-c2c(Cl)c(CN3C(=O)CCC3=O)nc3sc4c(c23)CCC(=O)C4)cc1,257 to 258 °C
11,Cc1noc(C)c1S(=O)(=O)n1nnc2cc3c(cc21)OC(F)(F)O3,120 to 123 °C
12,CC(C)NC(=O)N1CCc2[nH]cnc2C1C(C)C (centres undefined),202 °C
13,COc1ccccc1OCCCc1nc(-c2ccc(Cl)cc2)co1,94 to 95 °C
14,Cc1nc(Nc2nc3ccc([N+](=O)[O-])cc3[nH]2)nc(O)c1CC(=O)O,> 300 °C
15,COC1CC(c2ccc(-c3ccc(C#N)cc3)cc2)C(OC)O1 (centres undefined),149 to 150 °C
16,CC(=O)OC1CC(=O)N([Si](C)(C)C)C1 (centres undefined),148 to 150 °C
17,C#Cc1ccnc(-c2cc([N+](=O)[O-])c(-c3cc(C#C)ccn3)cc2N)c1,154 to 160 °C
18,O=C(Nc1cc(Cl)c(O)c(Cl)c1)c1ccc(O)cc1O,235 to 237 °C
19,COCc1cnc2c(NC(=O)c3c(Cl)cccc3Cl)cccc2c1-n1ccnc1,145 to 150 °C
20,O=C(O)CN(CCN(CC(=O)O)C(Cc1ccccc1)C(=O)O)CC(=O)O (centres undefined),120 °C
21,CCN(CC)c1ccc(C2(c3c(C)n(CC)c4ccccc34)OC(=O)c3ccccc32)c(N(CC)CC)c1 (centres undefined),139 to 140 °C

# Results, then the molecule that gave them:
row,melting point,SMILES
1,174 to 176 °C,COC(=O)CN(NC(N)=O)c1ccc(OC)c(C)c1
2,89 to 92 °C,COC(=O)c1ccc(NCc2cccc(F)c2)cn1
3,> 290 °C,O=C(O)c1cccc2ncc(-c3ccccc3)cc12
4,167 to 169 °C,CC1(C)CC(=O)c2c(-c3cncs3)cn(-c3ccccn3)c2C1
5,137 to 143 °C,O=C(O)CNC(=O)C1(CS)Cc2ccccc2C1
6,186 to 188 °C,CCC(=O)Nc1nc(-c2ccc(OC(F)F)cc2)cs1
7,84.5 to 86 °C,COC(=O)c1ccccc1-c1cnc(-c2cccc(C(F)(F)F)c2)o1
8,98 °C,CC(C)N(C(=O)COc1nnc(C(F)F)s1)c1cccc(Cl)c1
9,250 °C,O=C(CN1C(=O)c2ccccc2C1=O)Nc1ccccc1Cl
10,131 to 134 °C,O=C1c2cccc([N+](=O)[O-])c2OC12CC2
11,150 to 152 °C,O=C(OC1CCc2c(c3ccccc3n2Cc2ccc(Cl)cc2)C1)c1ccccc1 (centres undefined)
12,78 to 79 °C,CC(C)(Cc1ccccc1)Oc1ccc([N+](=O)[O-])cc1
13,> 300 °C,O=C(O)c1cc(-c2ccncc2)c[nH]c1=O
14,99 to 100 °C,CCN(CC)CC(=O)Nc1ccc(-c2n[nH]c3c2Cc2ccccc2-3)cc1
15,283 to 286 °C,CC(=O)NC1CSc2ccccc2NC1=O (centres undefined)
16,94 °C,CC1=C(c2ccccc2)C(=O)N(C(C)(C)C(=O)C2CCCCC2)CO1
17,224 to 226 °C,CC(=O)Nc1cccc2c(-c3ccccc3)c([N+](=O)[O-])oc12
18,221 to 223 °C,Clc1ccccc1Oc1ncc2c(-c3cccs3)n[nH]c2n1
19,130 °C,CC(C)(Nc1ccc(Cc2ccccc2)cc1)C(=O)O
20,67 to 69.5 °C,COc1ccc(C2(C)CNC(=O)O2)cc1OC(C)C (centres undefined)
21,72 to 74 °C,NN=CNCCCCNC(=O)[C@@H]1CCCN1C(=O)[C@@H](CCC(N)=O)NS(=O)(=O)c1ccc2ccccc2c1

row,melting point,SMILES
1,> 200 °C,COc1cccc(/C=C/C(=O)N2CC(CCl)c3c2cc(N)c2ccccc32)c1 (centres undefined)
2,233 to 235 °C,CCOC(=O)C(=C1SC(=S)N(CC(=O)O)C1=O)c1csc(NC(=S)NC(=O)c2ccccc2)n1
3,> 280 °C,O=C(O)C=Cc1ccc(Oc2nsnc(Cl)c2=O)cc1
4,161 to 163 °C,CCCCC(=N)NC(=O)Nc1cccc([N+](=O)[O-])c1
5,222 °C,CC(C)n1nc(-c2c(NCc3ccncc3)nc(N)nc2-c2ccccc2)ccc1=O
6,231 to 233 °C,CC(C)=C1C(=O)N(c2ccc(O)cc2)C(=O)/C1=C(\C)c1c(C)n(C)c2ccccc12
7,138 °C,O=C1CC(c2ccccc2)c2cc(O)ccc2O1 (centres undefined)
8,164 to 165 °C,COC(=O)C1Cc2c([nH]c3ccccc23)CN1 (centres undefined)
9,112 to 113 °C,Cc1ccc(S(=O)(=O)Oc2cccc3c2CCCN3)cc1
10,268 to 270 °C,CNc1nc(N)nc(-c2ccccc2)c1-c1ccc(=O)n(C(C)C)n1
11,226 °C,Nc1ccc(C2=NNC(=O)CC2)cc1N
12,95 to 96 °C,CCOC(=O)Cc1c(-c2ccccc2)c2cc(COC(C)=O)c(COC(C)=O)cc2oc1=O
13,149 to 151 °C,COc1ccccc1N1CCN(CCn2c(=O)c3sccc3n(C)c2=O)CC1
14,93 °C,Cc1cc(Br)c(C=O)c2ccccc12
15,84 to 85 °C,CC(=Cc1ccc(Cl)cc1Cl)c1ccc(Cl)cc1
16,58 to 60 °C,CCOC(=O)c1cnoc1-c1ccc(Cl)cc1
17,85 to 90 °C,O=C(N[C@@H](CO)C(=O)NCCc1ccccc1)c1ccc(C(=O)c2cccnc2)cc1
18,55 to 56.5 °C,ClCCOc1ccccc1OCCCl
19,95 to 96 °C,O=C(O)CCCCCc1nn(-c2ccccc2)c2c1CCC2
20,180 to 182 °C,COC(=O)c1ccc(N=C(Nc2ccc(C(=O)OC)cc2)c2ccccc2)cc1
